Measured values from PMC5716993, “The interdomain flexible linker of the polypeptide GalNAc transferases dictates their long-range glycosylation preferences” (Nature Communications, 2017).
“Also recorded” adds a separate entry of the source.

Target: T1, GalNAc-T4 (Homo sapiens, UniProt Q8N4A0)
T1 construct: amino acid residues 36–578 of the human GalNAc-T4; histidine tag (C); made in house; host or cells: Pichia pastoris SMD1168 (pPICZαA, secreted)
Experiment: STD-NMR binding / epitope mapping
Details: for STD-NMR signals of the GalNAc sugar protons: GalNAc moiety, UDP, pH 7.4; for STD-NMR signals of the GalNAc sugar protons / STD-NMR signals (peptide recognition): ~880 μM ligand, 13.5 μM GalNAc-T4, 298 K; for STD-NMR signals of the GalNAc sugar protons / STD-NMR signals (peptide recognition) / STD-NMR-derived epitope mapping of GalNAc moiety: in words; for STD-NMR signals (peptide recognition): in presence of UDP and MnCl2 (75 μM each), pH 7.4 uncorrected, TRIS-d11 D2O; for STD-NMR-derived epitope mapping of GalNAc moiety: normalized to the highest STD response
Protocol: All NMR experiments were recorded on a Bruker Avance 600 MHz spectrometer equipped with a triple channel cryoprobe head. The^1H NMR resonances of the peptides 1–3 were completely assigned through standard 2D-TOCSY (30 and 80 ms mixing time) and 2D-NOESY experiments (400 ms mixing time). Solution conditions used for the NMR characterization studies were 1–3 mM (glyco)peptide, 25 mM perdeuterated tris-d11 in 90:10 H2O/D2O, 7.5 mM NaCl, and 1 mM DTT, uncorrected pH 7.4. The assignments were accomplished either at 278 or 298 K. The resonance of 2,2,3,3-tetradeutero-3-trimethylsilylpropionic acid (TSP) was used as a chemical shift reference in the^1H NMR experiments (δ TSP = 0 ppm). Peak lists for the 2D-TOCSY and 2D-NOESY spectra were generated by interactive peak picking using the computer aided resonance assignment (CARA) software.
Samples for STD experiments were prepared in perdeuterated 25 mM TRIS-d11 in deuterated water, 7.5 mM NaCl, and 1 mM DTT, uncorrected pH 7.4. STD-NMR experiments were performed at 298 K in the presence of 75 μM UDP, 75 μM MnCl2 with ~880 μM peptide (or GalNAc-O-Me) and 13.5 μM GalNAc-T4 giving a molar ratio of 65:1 peptide:GalNAc-T4.
The STD-NMR spectra were acquired with 1920 transients in a matrix with 64 k data points in t2 in a spectral window of 12335.53 Hz centered at 2819.65 Hz. An excitation sculpting module with gradients was employed to suppress the water proton signals. Selective saturation of the protein resonances (on resonance spectrum) was performed by irradiating at −1 ppm using a series of Eburp2.1000-shaped 90° pulses (50 ms, 1 ms delay between pulses) for a total saturation time of 2.0 s. For the reference spectrum (off resonance), the samples were irradiated at 100 ppm. Proper control experiments were performed with the ligands in the presence and absence of the protein in order to optimize the frequency for protein saturation (−1 ppm) and to ensure that the ligand signals were not affected. […] This nonspecific saturation was taken into account, by subtraction, when quantifying the STD-NMR data in the presence of the transferase. As well, a blank STD experiment with only the protein was also recorded. The substraction of this protein STD spectrum allowed eliminating the signal background of the protein. In all cases, to accomplish the STD-NMR-derived epitope mapping of each ligand, the STD-NMR total intensities were normalized with respect to the highest STD-NMR response. For Fig. 2b and Supplementary Fig. 1, the STD response of each amino acid corresponds to the average of STD percentages of all amino acid proton resonances that were measured with sufficient accuracy. The signal of the anomeric proton of as well as, the Hα protons of the Ala amino acids of glycopeptides could not be analyzed in the STD-NMR spectra due to their close proximity to the HDO resonance. Proton resonances, from Gly and Pro, appear in the same chemical shift region of the spectrum and were not discriminated.

T1 sequence (Q8N4A0 36-578): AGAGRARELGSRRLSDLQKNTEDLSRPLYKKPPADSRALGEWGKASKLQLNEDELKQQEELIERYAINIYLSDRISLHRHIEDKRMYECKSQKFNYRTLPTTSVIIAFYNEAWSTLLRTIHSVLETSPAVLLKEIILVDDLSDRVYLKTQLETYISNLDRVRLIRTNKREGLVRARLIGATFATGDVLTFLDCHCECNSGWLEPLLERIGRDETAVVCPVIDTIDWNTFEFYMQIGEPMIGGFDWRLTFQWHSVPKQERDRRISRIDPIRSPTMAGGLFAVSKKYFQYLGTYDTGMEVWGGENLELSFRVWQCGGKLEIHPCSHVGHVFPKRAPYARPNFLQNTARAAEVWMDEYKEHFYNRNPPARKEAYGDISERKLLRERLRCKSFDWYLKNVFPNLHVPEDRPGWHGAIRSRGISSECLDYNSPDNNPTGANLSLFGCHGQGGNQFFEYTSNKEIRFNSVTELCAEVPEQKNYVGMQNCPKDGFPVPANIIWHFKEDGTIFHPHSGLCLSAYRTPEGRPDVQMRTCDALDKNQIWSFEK

AGAGTTPGPGAGAT*GA [Peptide 2, monoglycopeptide …*GA, T* denotes the Thr-O-GalNAc moiety]
STD-NMR signals of the GalNAc sugar protons (MnCl2): unambiguous and more intense STD-NMR signals; also recorded: GalNAc protons receive much more saturation than the amino acid residues
STD-NMR signals (peptide recognition): relatively weak STD-NMR signals were observed for the Ala and Thr methyl protons
STD-NMR-derived epitope mapping of GalNAc moiety (298 K, pH 7.4, UDP, MnCl2): the highest STD response corresponded to the H2 proton of the GalNAc moiety followed by a modest STD of protons H4, H3, and N-acetyl group

GAT*GAGAGAGTTPGPG [Peptide 3, monoglycopeptide GAT*…, T* denotes the Thr-O-GalNAc moiety]
STD-NMR signals of the GalNAc sugar protons (MnCl2): unambiguous and more intense STD-NMR signals; also recorded: GalNAc protons receive much more saturation than the amino acid residues
STD response, GalNAc H3 (H3 of GalNAc moiety, normalized to highest STD response, 298 K, pH 7.4, UDP, MnCl2): 72%
STD response, GalNAc H4 (H4 of GalNAc moiety, normalized to highest STD response, 298 K, pH 7.4, UDP, MnCl2): 92%
STD-NMR signals (peptide recognition): relatively weak STD-NMR signals were observed for the Ala and Thr methyl protons; also recorded: no significant STD with the acceptor peptide residues
STD-NMR-derived epitope mapping of GalNAc moiety (298 K, pH 7.4, UDP, MnCl2): H2, H4, and the N-acetyl group of the GalNAc moiety have the highest STD-NMR response closely followed by the H3 proton
